SMILES strings stand for the structures. ≈ marks a conversion by molar mass, not a printed value.

For series [1], the target named is histone deacetylase (HeLa nuclear extracts). As to the kind of experiment: In vitro assay for inhibition of histone deacetylase. The note with it: [3H]acetylated histone H4 peptide substrate. It is filed as biochemical.
Series [2] concerns A2780 ovarian carcinoma cells. As to the kind of experiment: Antiproliferative activity on A2780 cells (MTT). It is filed as cell-based, human. To be noted: Homo sapiens, A2780, 96 h, four days of incubation, read-out: Cellular activity pIC50 (converted). A digest of the protocol:
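A2780 ovarian carcinoma cells were seeded at 1500 cells/well and exposed to compound for four days, with DMSO ≤0.1%. Viability was measured by MTT (2 h, 37° C) and expressed as a percentage of untreated controls after blank subtraction. Initial single-point testing was at 10^−6 M, then full curves gave pIC50.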

A short description of series [3]: Kinetic solubility in aqueous media (nephelometry). The class given is physicochemical. The note with it: phosphate citrate buffer, pH 7.4, aqueous buffer, kinetic from dmso stock, phosphate citrate buffer pH 7.4, turbidity of three dilution steps; read-out: Solubility Score. The gist of the method:
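DMSO stock (5 mM) diluted in three consecutive steps into phosphate citrate buffer pH 7.4, in triplicate; turbidity of each dilution read by nephelometry immediately after the last step. Compounds ranked into 3 classes: score 3 if first dilution clear, 2 if first unclear but second clear.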

As a reminder, the solubility is how much of the substance goes into solution per volume. With `O=C(NO)c1ccc(N2CCN(S(=O)(=O)c3ccccc3C(F)(F)F)CC2)cc1` [Compound 74], the “Enzyme activity pIC50” value in series [1] stood at 5.841. In series [2], the IC50 is 2610 nM. Also, the solubility in series [3] was 75.8 to 454 µM (≈ 32.6 to 195 µg/mL).
The matching figures for `O=C(NO)c1cnc(N2CCN(S(=O)(=O)c3cccs3)CC2)nc1` [Compound 90]: 7.467, 1110 nM and over 454 µM.
The matching figures for `O=C(NO)c1ccc(N2CCN(S(=O)(=O)c3cccc(-c4ccccc4)c3)CC2)cc1` [Compound 83]: 6.157, 1300 nM and under 75.8 µM.
The matching figures for `O=C(NO)c1ccc(N2CCN(S(=O)(=O)c3ccc4ccccc4c3)CC2)cc1` [Compound 2]: 7.147, 1940 nM and under 75.8 µM.
In the case of `CN1CCN(Cc2sccc2-c2ccc(S(=O)(=O)N3CCN(c4ncc(C(=O)NO)cn4)CC3)cc2)CC1` [Compound 144], in series [1], the “Enzyme activity pIC50” value was 8.428. In addition, the IC50 in series [2] is 81.5 nM. In series [3], the solubility is over 454 µM.
The like results for `O=C(NO)c1cnc(N2CCN(S(=O)(=O)c3ccc(-c4ccc[nH]4)cc3)CC2)nc1` [Compound 137] were, in that order, 7.169, 1120 nM and 75.8 to 454 µM (≈ 32.5 to 195 µg/mL).
Regarding `O=C(NO)c1ccc(NC(=O)N2CCN(S(=O)(=O)c3ccc4ccccc4c3)CC2)cc1` [Compound 8], the “Enzyme activity pIC50” value in series [1] is 7.587. For the same compound, in series [2], the IC50 was 2280 nM. In addition, in series [3], the solubility was over 454 µM.
As for `CC(C)N(C)CCc1cccc(-c2ccc(S(=O)(=O)N3CCN(c4ncc(C(=O)NO)cn4)CC3)cc2)c1` [Compound 173], the “Enzyme activity pIC50” value in series [1] was 8.423. Moreover, the IC50 in series [2] was 70.5 nM. Further, the solubility in series [3] was over 454 µM.
`CN(C)CCCOc1ccccc1-c1ccc(S(=O)(=O)N2CCN(c3ncc(C(=O)NO)cn3)CC2)cc1` [Compound 154]: the “Enzyme activity pIC50” value in series [1] came to 8.869. In addition, the IC50 in series [2] is 64 nM. Besides, in series [3], the solubility is under 75.8 µM.
In the case of `O=C(NO)c1ccc(N2CCN(S(=O)(=O)c3ccc(Oc4ccccc4)cc3)CC2)cc1` [Compound 82], the “Enzyme activity pIC50” value in series [1] is recorded as 5.821. Also, the IC50 in series [2] is 1080 nM. Besides, the solubility in series [3] is over 454 µM.
For the compound `O=C(NO)c1cnc(N2CCN(S(=O)(=O)c3ccc(-c4cc(Cl)cc(Cl)c4)cc3)CC2)nc1` [Compound 176], the “Enzyme activity pIC50” value in series [1] is 6.513. Also, the IC50 in series [2] was 828 nM. Moreover, in series [3], the solubility was in the range of 75.8 to 454 µM (≈ 38.5 to 231 µg/mL).
Regarding `CN(C)S(=O)(=O)N1CCN(Cc2sccc2-c2ccc(S(=O)(=O)N3CCN(c4ncc(C(=O)NO)cn4)CC3)cc2)CC1` [Compound 147], the “Enzyme activity pIC50” value in series [1] is 6.765. Also, the IC50 in series [2] is 693 nM. In addition, the solubility in series [3] is under 75.8 µM.
For `COC1CCN(Cc2sccc2-c2ccc(S(=O)(=O)N3CCN(c4ncc(C(=O)NO)cn4)CC3)cc2)CC1` [Compound 149], the “Enzyme activity pIC50” value in series [1] amounted to 8.175. Further, the IC50 in series [2] is 144 nM. Also, in series [3], the solubility was 75.8 to 454 µM (≈ 43.4 to 260 µg/mL).
The like results for `Cn1nc(C(F)(F)F)cc1-c1ccc(S(=O)(=O)N2CCN(c3ncc(C(=O)NO)cn3)CC2)s1` [Compound 94] were, in that order, 7.497, 218 nM and 75.8 to 454 µM (≈ 39.2 to 235 µg/mL).
The like results for `O=C(NO)c1cnc(N2CCN(S(=O)(=O)c3ccc(-c4ccsc4CN4CCOCC4)cc3)CC2)nc1` [Compound 148] were, in that order, 7.94, 176 nM and under 75.8 µM.
The like results for `CC(C)(C)c1ccc(-c2ccc(S(=O)(=O)N3CCN(c4ncc(C(=O)NO)cn4)CC3)cc2)cc1` [Compound 105] were, in that order, 6.494, 798 nM and under 75.8 µM.
As to `O=C(NO)c1ccc(N2CCN(S(=O)(=O)Cc3ccccc3)CC2)cc1` [Compound 73], the “Enzyme activity pIC50” value in series [1] stood at 6.212. The IC50 in series [2] is 3960 nM. Further, the solubility in series [3] was under 75.8 µM.
Turning to `O=C(NO)c1ccc(N2CCN(S(=O)(=O)c3cc(S(=O)(=O)c4ccccc4)cs3)CC2)cc1` [Compound 69], the “Enzyme activity pIC50” value in series [1] was found to be 5.978. For the same compound, in series [2], the IC50 is over 10000 nM. The solubility in series [3] was over 454 µM.
As to `O=C(NO)c1cnc(N2CCN(S(=O)(=O)c3ccc(-c4ccccc4CN(CCO)CCO)cc3)CC2)nc1` [Compound 160], the “Enzyme activity pIC50” value in series [1] is 8.272. Also, the IC50 in series [2] was 278 nM. Also, the solubility in series [3] is 75.8 to 454 µM (≈ 42.2 to 253 µg/mL).
With `O=C(NO)c1ccc(N2CCN(S(=O)(=O)CCc3cccc4ccccc34)CC2)cc1` [Compound 62], the “Enzyme activity pIC50” value in series [1] stood at 5.409. Further, the IC50 in series [2] was 384 nM. Moreover, in series [3], the solubility is under 75.8 µM.
For the compound `O=C(NO)c1cnc(N2CCN(S(=O)(=O)c3ccc(-c4ccc(C(F)(F)F)cc4)cc3)CC2)nc1` [Compound 185], in series [1], the “Enzyme activity pIC50” value turned out to be 6.417. The IC50 in series [2] was 160 nM. The solubility in series [3] was under 75.8 µM.
Regarding `CN(C)c1cccc2c(S(=O)(=O)N3CCN(c4ccc(C(=O)NO)cc4)CC3)cccc12` [Compound 72], the “Enzyme activity pIC50” value in series [1] is on record as 6.346. In series [2], the IC50 is 942 nM. The solubility in series [3] was under 75.8 µM.
The like results for `O=C(NO)c1cnc(N2CCN(S(=O)(=O)c3c(Cl)nc4sccn34)CC2)nc1` [Compound 95] were, in that order, 7.363, 1100 nM and over 454 µM.
The matching figures for `Cn1nc(-c2ccc(S(=O)(=O)N3CCN(c4ncc(C(=O)NO)cn4)CC3)s2)cc1C(F)(F)F` [Compound 93]: 7.464, 455 nM and over 454 µM.
Turning to `O=C(NO)c1ccc(N2CCN(S(=O)(=O)c3cccs3)CC2)cc1` [Compound 70], the “Enzyme activity pIC50” value in series [1] came out at 5.914. For the same compound, the IC50 in series [2] is 4060 nM. Moreover, in series [3], the solubility is over 454 µM.
The matching figures for `CC(C)N(C)Cc1cccc(-c2ccc(S(=O)(=O)N3CCN(c4ncc(C(=O)NO)cn4)CC3)cc2)c1` [Compound 170]: 8.227, 65.3 nM and over 454 µM.
The like results for `O=C(NO)c1ccc(N2CCN(S(=O)(=O)c3cccc4ccccc34)CC2)cc1` [Compound 81] were, in that order, 6.873, 1300 nM and under 75.8 µM.
The matching figures for `CN(C)c1ccc2cc(S(=O)(=O)N3CCN(c4ncc(C(=O)NO)cn4)CC3)ccc2c1` [Compound 181]: 7.098, 119 nM and over 454 µM.
Turning to `COc1cncc(-c2ccc(S(=O)(=O)N3CCN(c4ncc(C(=O)NO)cn4)CC3)cc2)c1` [Compound 138], in series [1], the “Enzyme activity pIC50” value was 7.545. Besides, in series [2], the IC50 is 249 nM. Besides, in series [3], the solubility fell in the range of 75.8 to 454 µM (≈ 35.7 to 214 µg/mL).
The matching figures for `O=C(NO)c1cnc(N2CCN(S(=O)(=O)c3ccc4cccnc4c3)CC2)nc1` [Compound 91]: 7.688, 783 nM and over 454 µM.
The like results for `O=C(CS)Nc1ccc(N2CCN(S(=O)(=O)c3ccc4ccccc4c3)CC2)cc1` [Compound 19] were, in that order, under 5, over 10000 nM and under 75.8 µM.
The matching figures for `Cc1ccccc1-c1ccc(S(=O)(=O)N2CCN(c3ncc(C(=O)NO)cn3)CC2)cc1` [Compound 106]: 7.797, 258 nM and 75.8 to 454 µM (≈ 34.4 to 206 µg/mL).
With `O=C(NO)c1cnc(N2CCN(S(=O)(=O)c3ccc(-c4ccc(OC(F)(F)F)cc4)cc3)CC2)nc1` [Compound 98], the “Enzyme activity pIC50” value in series [1] is 7.054. The IC50 in series [2] is 356 nM. Besides, the solubility in series [3] is 75.8 to 454 µM (≈ 39.7 to 238 µg/mL).
In the case of `CN(C)c1cccc(-c2ccc(S(=O)(=O)N3CCN(c4ncc(C(=O)NO)cn4)CC3)cc2)c1` [Compound 135], the “Enzyme activity pIC50” value in series [1] is listed as 7.631. Further, the IC50 in series [2] is 287 nM. Moreover, the solubility in series [3] was over 454 µM.
Turning to `O=C(NO)c1cnc(N2CCN(S(=O)(=O)c3ccc(-c4ccccn4)s3)CC2)nc1` [Compound 182], the “Enzyme activity pIC50” value in series [1] is 7.634. For the same compound, the IC50 in series [2] was 87.1 nM. Besides, in series [3], the solubility was under 75.8 µM.
The matching figures for `CN(C)CCN(C)Cc1ccc(-c2ccc(S(=O)(=O)N3CCN(c4ncc(C(=O)NO)cn4)CC3)cc2)cc1` [Compound 164]: 8.308, 48.3 nM and 75.8 to 454 µM (≈ 42 to 252 µg/mL).
`O=C(NO)c1cnc(N2CCN(S(=O)(=O)c3ccc(-c4ccc(CN5CCN(CCO)CC5)cc4)cc3)CC2)nc1` [Compound 166]: the “Enzyme activity pIC50” value in series [1] is given as 7.969. Moreover, the IC50 in series [2] was 61.4 nM. Moreover, in series [3], the solubility was under 75.8 µM.
As for `Cc1cccc(C)c1-c1ccc(S(=O)(=O)N2CCN(c3ncc(C(=O)NO)cn3)CC2)cc1` [Compound 133], the “Enzyme activity pIC50” value in series [1] worked out at 7.869. In series [2], the IC50 was 1260 nM. Besides, the solubility in series [3] was in the range of 75.8 to 454 µM (≈ 35.4 to 213 µg/mL).
For the compound `COc1ccc(-c2ccc(S(=O)(=O)N3CCN(c4ncc(C(=O)NO)cn4)CC3)cc2)cc1` [Compound 175], in series [1], the “Enzyme activity pIC50” value is 7.691. In addition, the IC50 in series [2] was 68.9 nM. The solubility in series [3] is under 75.8 µM.
The matching figures for `O=C(NO)c1cnc(N2CCN(S(=O)(=O)c3ccc(-c4ccc(F)cc4F)cc3)CC2)nc1` [Compound 107]: 7.663, 144 nM and 75.8 to 454 µM (≈ 36 to 216 µg/mL).

For the origin of these results see US7205304B2, “Sulfonyl-Derivatives as novel inhibitors of histone deacetylase” (Janssen Pharmaceutica N.V., priority 2002, dated 2007).
